Measurements: the supplement of paper PMC10307832

Experiments:
Experiment in all cases: relative viability (nuclei count vs DMSO), 5 days (fraction); higher = more cells survive
[1] = compound: CC(C)(C)c1cc(NC(=O)Nc2ccc(-c3cn4c(n3)sc3cc(OCCN5CCOCC5)ccc34)cc2)no1 [Quizartinib] + CC(=O)c1c(C)c2cnc(Nc3ccc(N4CCNCC4)cn3)nc2n(C2CCCC2)c1=O [Palbociclib] (partner 0.5 µM)
How it was run: (§1)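 Relative viability is defined as nuclei in treated wells over nuclei in vehicle wells. Duplicate plates were run and medians reported. Lung cancer cell lines in 1536-well plates were dosed by pin tool one day after seeding, with one drug or with a fixed anchor-drug dose plus five library-drug doses (not always all listed) in √10 steps, and nuclei were counted after 5 days.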

YM155 + Palbociclib = compound: COCC[n+]1c2c(n(Cc3cnccn3)c1C)C(=O)c1ccccc1C2=O [YM155] + CC(=O)c1c(C)c2cnc(Nc3ccc(N4CCNCC4)cn3)nc2n(C2CCCC2)c1=O [Palbociclib] (partner 0.5 µM)
How it was run: as §1

Quizartinib + AZD7762 = compound: CC(C)(C)c1cc(NC(=O)Nc2ccc(-c3cn4c(n3)sc3cc(OCCN5CCOCC5)ccc34)cc2)no1 [Quizartinib] + NC(=O)Nc1cc(-c2cccc(F)c2)sc1C(=O)N[C@H]1CCCNC1 [AZD7762] (partner 0.2 µM)
How it was run: as §1

Quizartinib + Luminespib = compound: CC(C)(C)c1cc(NC(=O)Nc2ccc(-c3cn4c(n3)sc3cc(OCCN5CCOCC5)ccc34)cc2)no1 [Quizartinib] + CCNC(=O)c1noc(-c2cc(C(C)C)c(O)cc2O)c1-c1ccc(CN2CCOCC2)cc1 [Luminespib] (partner 0.01 µM)
How it was run: as §1

Cell Line | relative viability ([1]; first compound 0.003162 µM) | relative viability ([1]; first compound 0.01 µM) | relative viability ([1]; first compound 0.03162 µM) | relative viability ([1]; first compound 0.1 µM) | relative viability (YM155 + Palbociclib; first compound 0.002 µM) | relative viability (YM155 + Palbociclib; first compound 0.006325 µM) | relative viability (YM155 + Palbociclib; first compound 0.02 µM) | relative viability (YM155 + Palbociclib; first compound 0.06325 µM) | relative viability (Quizartinib + AZD7762; first compound 0.001 µM) | relative viability (Quizartinib + AZD7762; first compound 0.003162 µM) | relative viability (Quizartinib + AZD7762; first compound 0.01 µM) | relative viability (Quizartinib + AZD7762; first compound 0.03162 µM) | relative viability (Quizartinib + AZD7762; first compound 0.1 µM) | relative viability ([1]; first compound 0.001 µM) | relative viability (Quizartinib + Luminespib; first compound 0.001 µM) | relative viability (Quizartinib + Luminespib; first compound 0.003162 µM) | relative viability (Quizartinib + Luminespib; first compound 0.01 µM) | relative viability (Quizartinib + Luminespib; first compound 0.03162 µM) | relative viability (Quizartinib + Luminespib; first compound 0.1 µM)
HCC-78 | 0.476 | 0.494 | 0.404 | 0.453 | 0.395 | 0.43 | 0.483 | 0.504 | 0.671 | 0.805 | 0.539 | 0.535 | 0.777 |  |  |  |  |  | 
HCC-366 | 0.384 | 0.374 | 0.382 | 0.436 | 0.37 | 0.412 | 0.439 | 0.27 | 0.272 | 0.181 | 0.285 | 0.119 | 0.199 | 0.318 |  |  |  |  | 
HCC-827 | 0.471 |  | 0.65 | 0.471 | 0.511 | 0.481 | 0.505 | 0.552 | 0.344 | 0.196 |  | 0.177 | 0.247 | 0.515 | 0.647 | 0.487 | 0.606 | 0.401 | 0.738
HOP-62 | 0.357 | 0.526 | 0.459 | 0.349 | 0.484 | 0.441 | 0.42 | 0.437 | 0.639 | 0.529 | 0.554 | 0.688 | 0.463 | 0.438 | 0.914 | 0.843 | 1.04 | 0.933 | 0.9
LC-2-ad | 0.518 | 0.528 | 0.508 | 0.461 | 0.455 | 0.485 | 0.511 | 0.411 | 0.75 | 0.835 | 0.91 | 0.883 | 0.835 | 0.4 | 0.938 | 1.07 | 0.945 |  | 0.985
LCLC-97TM1 | 0.226 | 0.219 | 0.241 | 0.236 |  | 0.232 | 0.241 | 0.19 | 0.197 | 0.334 | 0.325 | 0.179 | 0.361 | 0.22 | 0.7 | 0.6 | 0.892 | 0.686 | 0.759
NCI-H520 | 0.257 | 0.251 | 0.196 | 0.175 | 0.175 | 0.205 | 0.238 | 0.304 |  |  |  |  |  |  | 0.232 | 0.201 | 0.207 | 0.333 | 0.255
NCI-H596 |  |  |  |  |  |  |  |  | 1.12 | 1.07 | 1.02 | 1.04 | 1.32 |  | 0.922 | 0.884 | 1.02 | 0.852 | 0.888
NCI-H661 | 0.348 | 0.391 | 0.384 | 0.339 | 0.405 | 0.401 | 0.418 | 0.327 |  |  |  |  |  | 0.369 | 0.921 | 0.899 | 0.929 | 0.905 | 0.9
NCI-H1563 |  |  |  |  |  |  |  |  |  |  |  |  |  |  | 0.516 | 0.499 | 0.528 | 0.551 | 0.584
NCI-H1623 |  |  |  |  |  |  |  |  |  |  |  |  |  |  | 0.38 | 0.564 | 0.455 | 0.57 | 0.408
NCI-H1650 | 0.329 | 0.345 |  | 0.321 | 0.229 | 0.347 | 0.286 | 0.216 |  |  |  |  |  | 0.386 | 0.185 | 0.182 | 0.19 |  | 0.172
NCI-H1703 |  |  |  |  |  |  |  |  | 0.155 | 0.143 |  |  | 0.134 |  |  |  |  |  | 
NCI-H2009 | 0.237 | 0.273 | 0.191 | 0.226 | 0.215 | 0.189 | 0.318 | 0.166 |  |  |  |  |  | 0.202 | 0.915 | 1.01 | 1.07 | 0.967 | 1.03
NCI-H2023 | 0.312 | 0.467 |  | 0.279 | 0.384 | 0.423 | 0.21 | 0.105 |  |  |  |  |  | 0.298 | 0.73 | 0.664 | 0.759 |  | 0.624
NCI-H2228 | 0.936 | 0.773 | 1.03 | 0.76 | 0.573 | 0.69 | 0.752 | 0.714 |  |  |  |  |  | 0.695 | 0.176 | 0.153 | 0.139 | 0.214 | 0.159
SK-LU-1 | 0.361 | 0.443 | 0.381 | 0.388 | 0.405 | 0.495 | 0.404 | 0.412 |  |  |  |  |  | 0.366 | 0.205 | 0.191 | 0.212 | 0.201 | 0.232
SK-MES-1 | 0.286 | 0.362 | 0.299 | 0.292 | 0.312 | 0.357 | 0.225 | 0.191 |  |  |  |  |  | 0.338 | 0.736 | 0.789 | 0.541 |  | 0.646
SW 1573 | 0.367 | 0.493 |  | 0.434 | 0.415 | 0.314 | 0.126 | 0.0609 |  |  |  |  |  | 0.367 | 0.163 | 0.21 | 0.164 |  | 0.255
UMC-11 | 0.333 | 0.339 | 0.321 | 0.317 | 0.327 | 0.356 | 0.336 | 0.33 |  |  |  |  |  |  |  | 0.954 | 1.13 | 1.02 | 1.14
